Reference: PMC4738305, “Metabolism and Disposition of Aditoprim in Swine, Broilers, Carp and Rats” (Scientific Reports, 2016)

Assay: Tissue distribution and elimination of total radioactivity (total residues) after oral ^3H-ADP for 7 d
Type: in vivo, broilers
Parameters: Elimination kinetics Ke: unit not given here
Details: for Elimination kinetics Ke / Elimination kinetics t1/2 / Concentrations of total residues: broilers; for Elimination kinetics Ke / Elimination kinetics t1/2: 5 mg/kg b.w. 7 days
Method: (0.1 Ci/g) through oral gavage for 7 consecutive days. All the animals were housed on the basis of their group in the cages or aquaria throughout the whole study period. A group of animals was slaughtered through exsanguination under diethyl ether inhalation of anesthesia in the period of 6 h, 1, 3, 7, 14, and 21 d after the administration. The blood samples were immediately collected into the heparinized tubes and was centrifuged at 1920 × g at 4 °C for 10 min to obtain the plasma. The tissues from the heart, liver, spleen, lung, kidney, craw (broilers), stomach, intestine, fat, skin, muscle, thymus, pancreas, bile, bladder, hair (scale for carp), genital gland, adrenal glands, swim bladder (carp), brain, lymph, and bursa (broilers) were carefully excised and collected. The tissues were thoroughly rinsed with the deionized water to remove the residuary blood, blotted to dryness, and finally to perform the homogenization. In order to avoid cross-contamination the dissecting instruments were washed during the tissue procurements. The blank tissues were collected in order to provide control matrices. The total radioactivity levels in each sample were determined through LSC. The samples extracted from the plasma, bile, and tissues of the liver, kidney, muscle, and fat/skin were analyzed through LC/MS-IT-TOF and v. ARC radiometric detection for metabolite profiling.
Measurements of the total radioactivity in each sample were conducted by Packard Tri-Carb 2900 TR liquid scintillation counter (PerkinElmer Life and Analytical Sciences). The detection time was 10 min for two cycles. The scintillation counter data were automatically corrected for counting efficiency by instrument-stored quench curve which was drawn with a series of sealed quenched […] standards. The actual radioactivity of each sample was calculated by subtracting the background value form the mean radioactivity in two blank samples. All the samples were analyzed in duplicate if the sample size allowed this. If the results were differed by more than 10% from the mean value, the samples were reanalyzed. The samples with LSC counts less than 2-fold of the level of the running background were considered to contain insufficient radioactivity for reliable quantification.
Aliquots of liquid samples (urine, plasma, bile and raised water, 200 μL) were mixed with 10 mL of Ultima Gold^TM scintillation fluid for the direct analysis by LSC. Aliquots of solid samples (feces and tissues, 200 mg) were digested overnight with 2 mL tissue solubilizer at 50 °C in a shaking water bath, followed by adding 200 μL of 0.1 mol/L EDTA-Na and 200 μL of 30% H2O2, and was bathed at 50 °C for 2 h to bleach. The obtained transparent liquid were mixed with 10 mL of scintillation fluid and finally were counted by LSC. The digestion efficiency was determined by using the blank samples spiked with ^3 H standard for digestion, and the measured radioactivity content in the digested samples were adjusted by using the digestion efficiency values.
The concentrations of ADP and/or its metabolites were analyzed by using the following equation: C = L/(2.22 × 10^9 × RM), where C is the concentration of ADP or/and its metabolites (mg/kg), L is the LSC count (dpm), R is the specific activity of the administered dose (0.1 Ci/g), and M is the weight or volume of samples (kg or L). The results are expressed as mean ± SD. The elimination kinetics of terminal phase for ADP and its metabolites were conducted by using the WinNonlin linear regression program (Pharsight corporation, Statistical consultants, Inc., Kentucky, USA).

## [3H]c1c(Cc2cnc(N)nc2N)cc(OC)c(N(C)C)c1OC [^3H-ADP]
Broilers bile, within 6 h after oral ^3H-ADP for 7 d
  concentration of total radioactivity: 25.2 ± 8.5 mg/kg
Bile
  Elimination kinetics Ke: 0.71
  Elimination kinetics t1/2: 25.9 h
Blood
  Elimination kinetics Ke: 0.31
  Elimination kinetics t1/2: 54 h
Brain
  Elimination kinetics Ke: 0.47
  Elimination kinetics t1/2: 35.5 h
Bursa of Fabricius
  Elimination kinetics Ke: 0.33
  Elimination kinetics t1/2: 50.6 h
Fat
  Elimination kinetics Ke: 0.42
Fat, time 0.25, 5 mg/kg b.w. 7 days
  Concentrations of total residues: 0.78 ± 0.32 mg/kg
Fat, time 1, 5 mg/kg b.w. 7 days
  Concentrations of total residues: 0.43 ± 0.05 mg/kg
Fat, time 3, 5 mg/kg b.w. 7 days
  Concentrations of total residues: 0.24 ± 0.02 mg/kg
Fat, time 7, 5 mg/kg b.w. 7 days
  Concentrations of total residues: 0.04 ± 0.01 mg/kg
Feathers
  Elimination kinetics Ke: 0.28
  Elimination kinetics t1/2: 60 h
Feathers, time 0.25, 5 mg/kg b.w. 7 days
  Concentrations of total residues: 0.85 ± 0.17 mg/kg
Feathers, time 1, 5 mg/kg b.w. 7 days
  Concentrations of total residues: 0.53 ± 0.12 mg/kg
Feathers, time 3, 5 mg/kg b.w. 7 days
  Concentrations of total residues: 0.27 ± 0.03 mg/kg
Feathers, time 7, 5 mg/kg b.w. 7 days
  Concentrations of total residues: 0.10 ± 0.01 mg/kg
Glandular stomach
  Elimination kinetics Ke: 0.59
  Elimination kinetics t1/2: 28.1 h
Glandular stomach, time 1, 5 mg/kg b.w. 7 days
  Concentrations of total residues: 1.54 ± 0.36 mg/kg
Glandular stomach, time 3, 5 mg/kg b.w. 7 days
  Concentrations of total residues: 0.27 ± 0.05 mg/kg
Glandular stomach, time 7, 5 mg/kg b.w. 7 days
  Concentrations of total residues: 0.04 ± 0.00 mg/kg
Heart
  Elimination kinetics Ke: 0.29
  Elimination kinetics t1/2: 57.8 h
Kidney
  Elimination kinetics Ke: 0.30
Large Intestine
  Elimination kinetics Ke: 0.90
  Elimination kinetics t1/2: 18.5 h
Large Intestine, time 0.25, 5 mg/kg b.w. 7 days
  Concentrations of total residues: 6.29 ± 1.45 mg/kg
Large Intestine, time 1, 5 mg/kg b.w. 7 days
  Concentrations of total residues: 1.25 ± 0.23 mg/kg
Large Intestine, time 3, 5 mg/kg b.w. 7 days
  Concentrations of total residues: 0.12 ± 0.03 mg/kg
Large Intestine, time 7, 5 mg/kg b.w. 7 days
  Concentrations of total residues: 0.01 ± 0.00 mg/kg
Liver
  Elimination kinetics Ke: 0.21
Lung
  Elimination kinetics Ke: 0.61
  Elimination kinetics t1/2: 27.4 h
Maw
  Elimination kinetics Ke: 0.53
  Elimination kinetics t1/2: 31.4 h
Muscle
  Elimination kinetics Ke: 0.23
Muscle, time 0.25, 5 mg/kg b.w. 7 days
  Concentrations of total residues: 1.10 ± 0.44 mg/kg
Muscle, time 1, 5 mg/kg b.w. 7 days
  Concentrations of total residues: 0.23 ± 0.10 mg/kg
Muscular stomach
  Elimination kinetics Ke: 0.46
  Elimination kinetics t1/2: 36.5 h
Muscular stomach, time 0.25, 5 mg/kg b.w. 7 days
  Concentrations of total residues: 1.92 ± 0.57 mg/kg
Muscular stomach, time 1, 5 mg/kg b.w. 7 days
  Concentrations of total residues: 0.69 ± 0.10 mg/kg
Muscular stomach, time 3, 5 mg/kg b.w. 7 days
  Concentrations of total residues: 0.25 ± 0.03 mg/kg
Muscular stomach, time 7, 5 mg/kg b.w. 7 days
  Concentrations of total residues: 0.04 ± 0.01 mg/kg
Pancreas
  Elimination kinetics Ke: 0.57
  Elimination kinetics t1/2: 29 h
Skin
  Elimination kinetics Ke: 0.43
  Elimination kinetics t1/2: 38.6 h
Skin, time 0.25, 5 mg/kg b.w. 7 days
  Concentrations of total residues: 1.78 ± 0.42 mg/kg
Skin, time 1, 5 mg/kg b.w. 7 days
  Concentrations of total residues: 0.74 ± 0.11 mg/kg
Skin, time 3, 5 mg/kg b.w. 7 days
  Concentrations of total residues: 0.25 ± 0.02 mg/kg
Skin, time 7, 5 mg/kg b.w. 7 days
  Concentrations of total residues: 0.05 ± 0.01 mg/kg
Small Intestine
  Elimination kinetics Ke: 0.75
  Elimination kinetics t1/2: 22.1 h
Small Intestine, time 0.25, 5 mg/kg b.w. 7 days
  Concentrations of total residues: 8.23 ± 0.93 mg/kg
Small Intestine, time 1, 5 mg/kg b.w. 7 days
  Concentrations of total residues: 4.06 ± 1.32 mg/kg
Small Intestine, time 3, 5 mg/kg b.w. 7 days
  Concentrations of total residues: 0.29 ± 0.04 mg/kg
Small Intestine, time 7, 5 mg/kg b.w. 7 days
  Concentrations of total residues: 0.04 ± 0.00 mg/kg
Spleen
  Elimination kinetics Ke: 0.26
  Elimination kinetics t1/2: 63.1 h
